The source of these data is patent US20240124442A1, “TRICYCLIC-AMIDO-BICYCLIC PRMT5 INHIBITORS” (AMGEN INC., priority 2021, published 2024).

For one experiment, the system named is HCT116 MTAP null cells. The experiment is described as follows: HCT116 MTAP null cell line proliferation / cell viability (CellTiter-Glo, 6 days). In kind it is cell-based. To be noted: 144 h; HCT116 MTAP null cells, 6 days treatment, CellTiter-Glo cell viability; read-out: HCT-116 MTAP null IC50. Summed up: (§1)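 CellTiter-Glo luminescence read after 6 days of compound exposure in parental and MTAP-null HCT116 cells grown in RPMI 1640/10% FBS. Dilution series: 1:3 steps, 8–9 points, top 1 or 10 μM; or 1:2 steps, 22 points, top 10 or 50 μM. IC50 = curve transit through 50% of control.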

The next experiment has as its system HCT116 WT cells. The experiment is described as follows: HCT116 WT (parent) cell line proliferation / cell viability (CellTiter-Glo, 6 days). In kind it is cell-based. The following applies: Homo sapiens, HCT-116, 144 h, 6 days treatment. The method in brief:
as §1
A general note: In ATP-based viability assays light output follows the ATP content of the culture.

SMILES strings stand for the structures.

The term IC50 denotes the concentration at which inhibition is half-maximal. For the compound `Nc1nc2cc(F)c(C(=O)N(C3CC3)[C@@H]3COc4cc(C(F)(F)F)ccc43)cc2c2c1COC2` (single isomer, unassigned) [Example 554], the IC50 with HCT116 MTAP null cells came out at 21 nM; in the experiment with HCT116 WT cells it was 1400 nM.

For the compound `Nc1nc2cc(F)c(C(=O)N(C3CC3)[C@H]3COc4cc(C(F)(F)F)ccc43)cc2c2c1COC2` (single isomer, unassigned) [Example 555], the IC50 amounted to 1620 nM with HCT116 MTAP null cells and 13300 nM in the experiment with HCT116 WT cells.

As for `Nc1nc2cc(F)c(C(=O)N(CC3CC3)[C@@H]3COc4cc(C(F)(F)F)ccc43)cc2c2c1COC2` (single isomer, unassigned) [Example 556], the figures for the IC50 with HCT116 MTAP null cells and with HCT116 WT cells were 11 nM and 133 nM, respectively.

Take `Nc1nc2cc(F)c(C(=O)N(CC3CC3)[C@H]3COc4cc(C(F)(F)F)ccc43)cc2c2c1COC2` (single isomer, unassigned) [Example 557]: the IC50 in the experiment with HCT116 MTAP null cells is 665 nM; in the experiment with HCT116 WT cells it was 10500 nM.

In the case of `CN(C(=O)c1cc2c3c(c(N)nc2cc1Cl)COC3)[C@@H]1CCc2nc(C(F)(F)F)ccc21` (single isomer, unassigned) [Example 558], the values for the IC50 with HCT116 MTAP null cells and in the experiment with HCT116 WT cells were 17 nM and 941 nM, respectively.

On to `CN(C(=O)c1cc2c3c(c(N)nc2cc1Cl)COC3)[C@H]1CCc2nc(C(F)(F)F)ccc21` (single isomer, unassigned) [Example 559], for which the values for the IC50 in the experiment on HCT116 MTAP null cells and in the experiment with HCT116 WT cells were 1280 nM and 41400 nM, respectively.

In the case of `CN(C(=O)c1cc2c3c(c(N)nc2cc1Cl)COC3)[C@@H]1COc2cc(C(F)(F)F)ccc21` (single isomer, unassigned) [Example 560], the values for the IC50 in the experiment on HCT116 MTAP null cells and in the experiment with HCT116 WT cells were 12 nM and 594 nM, respectively.

Turning to `CN(C(=O)c1cc2c3c(c(N)nc2cc1Cl)COC3)[C@H]1COc2cc(C(F)(F)F)ccc21` (single isomer, unassigned) [Example 561], the IC50 in the experiment on HCT116 MTAP null cells amounted to 657 nM; with HCT116 WT cells it was 10800 nM.

For `CN(C(=O)c1cc2c3c(c(N)nc2cc1Cl)COC3)[C@@H]1COc2nc(C(F)(F)F)ccc21` (single isomer, unassigned) [Example 562], the IC50 was found to be 26 nM with HCT116 MTAP null cells and 1820 nM in the experiment on HCT116 WT cells.

As to `CN(C(=O)c1cc2c3c(c(N)nc2cc1Cl)COC3)[C@H]1COc2nc(C(F)(F)F)ccc21` (single isomer, unassigned) [Example 563], the results for the IC50 in the experiment with HCT116 MTAP null cells and in the experiment on HCT116 WT cells were 1960 nM and 25100 nM, respectively.

For `CN(C(=O)c1cc2c3c(c(N)nc2cc1Cl)COC3)[C@@H]1COc2cc(S(C)(=O)=O)ccc21` (single isomer, unassigned) [Example 564], the IC50 with HCT116 MTAP null cells is 19 nM; with HCT116 WT cells it was 925 nM.

`CN(C(=O)c1cc2c3c(c(N)nc2cc1Cl)COC3)[C@H]1COc2cc(S(C)(=O)=O)ccc21` (single isomer, unassigned) [Example 565]: the IC50 in the experiment on HCT116 MTAP null cells turned out to be 858 nM; in the experiment with HCT116 WT cells, 15000 nM.

For the compound `CN(C(=O)c1cc2c3c(c(N)nc2cc1Cl)COC3)[C@@H]1COc2cc(C(F)(F)F)cc(F)c21` (single isomer, unassigned) [Example 566], the IC50 in the experiment on HCT116 MTAP null cells worked out at 13 nM; in the experiment on HCT116 WT cells it was 447 nM.

Take `CN(C(=O)c1cc2c3c(c(N)nc2cc1Cl)COC3)[C@H]1COc2cc(C(F)(F)F)cc(F)c21` (single isomer, unassigned) [Example 567]: the IC50 in the experiment on HCT116 MTAP null cells came out at 313 nM; with HCT116 WT cells, 9870 nM.

`CN(C(=O)c1cc2c(cn1)nc(N)c1cnn(C)c12)[C@@H]1COc2cc(C(F)(F)F)ncc21` (single isomer, unassigned) [Example 568]: the figures for the IC50 in the experiment on HCT116 MTAP null cells and in the experiment with HCT116 WT cells were 97 nM and 5800 nM, respectively.

`CN(C(=O)c1cc2c(cc1F)nc(N)c1cnn(C)c12)[C@@H]1COc2cc(OC(F)F)ccc21` (single isomer, unassigned) [Example 569]: the half-inhibitory concentration (IC50) with HCT116 MTAP null cells stood at 6 nM; in the experiment with HCT116 WT cells, 222 nM.

As to `CN(C(=O)c1cc2c(cc1F)nc(N)c1cnn(C)c12)[C@H]1COc2cc(OC(F)F)ccc21` (single isomer, unassigned) [Example 570], the IC50 stood at 134 nM in the experiment on HCT116 MTAP null cells and 9210 nM with HCT116 WT cells.

With `CN(C(=O)c1cc2c(cc1F)nc(N)c1cnn(C)c12)[C@@H]1COc2cc(C(F)(F)F)ccc21` (single isomer, unassigned) [Example 571], the IC50 in the experiment on HCT116 MTAP null cells was found to be 10 nM; with HCT116 WT cells it was 116 nM.

Consider `CN(C(=O)c1cc2c(cc1F)nc(N)c1cnn(C)c12)[C@H]1COc2cc(C(F)(F)F)ccc21` (single isomer, unassigned) [Example 572], for which the IC50 in the experiment on HCT116 MTAP null cells amounted to 758 nM; in the experiment on HCT116 WT cells, 11400 nM.

Turning to `CN(C(=O)c1cc2c(cc1F)nc(N)c1cnn(C)c12)[C@@H]1COc2cc(C(F)(F)F)ncc21` (single isomer, unassigned) [Example 573], the IC50 in the experiment on HCT116 MTAP null cells came out at 12 nM; with HCT116 WT cells, 685 nM.

Regarding `CN(C(=O)c1cc2c(cc1F)nc(N)c1cnn(C)c12)[C@H]1COc2cc(C(F)(F)F)ncc21` (single isomer, unassigned) [Example 574], the IC50 is 415 nM with HCT116 MTAP null cells and 40100 nM in the experiment with HCT116 WT cells.

With `CN(C(=O)c1ccc2nc(N)c3c(cnn3C)c2c1)[C@@H]1COc2cc(C(F)(F)F)ccc21` (single isomer, unassigned) [Example 575], the IC50 in the experiment with HCT116 MTAP null cells came to 179 nM; in the experiment on HCT116 WT cells, 7610 nM.

Turning to `CN(C(=O)c1ccc2nc(N)c3c(cnn3C)c2c1)[C@H]1COc2cc(C(F)(F)F)ccc21` (single isomer, unassigned) [Example 576], the IC50 was 4920 nM in the experiment on HCT116 MTAP null cells and 13200 nM with HCT116 WT cells.

As to `CN(C(=O)c1cc2c(cc1F)nc(N)c1c2cnn1C)[C@@H]1COc2cc(OC(F)F)ccc21` (single isomer, unassigned) [Example 577], the results for the IC50 in the experiment on HCT116 MTAP null cells and with HCT116 WT cells were 132 nM and 16100 nM, respectively.

`CN(C(=O)c1ccc2nc(N)c3c(c2c1)COC3)[C@@H]1CCOc2cc(C(F)(F)F)ccc21` (single isomer, unassigned) [Example 578]: the IC50 with HCT116 MTAP null cells turned out to be 222 nM; in the experiment with HCT116 WT cells, 5880 nM.

For `CN(C(=O)c1ccc2nc(N)c3c(c2c1)COC3)[C@H]1CCOc2cc(C(F)(F)F)ccc21` (single isomer, unassigned) [Example 579], the IC50 stood at 2370 nM in the experiment on HCT116 MTAP null cells and 4510 nM with HCT116 WT cells.

As for `CCN(C(=O)c1ccc2nc(N)c3c(c2c1)COC3)[C@@H]1COCc2cc(Br)ccc21` (single isomer, unassigned) [Example 580], the IC50 in the experiment with HCT116 MTAP null cells was determined as 19 nM; with HCT116 WT cells, 976 nM.

On to `CCN(C(=O)c1ccc2nc(N)c3c(c2c1)COC3)[C@H]1COCc2cc(Br)ccc21` (single isomer, unassigned) [Example 581], for which the results for the IC50 with HCT116 MTAP null cells and with HCT116 WT cells were 790 nM and 17900 nM, respectively.

Take `COc1ccc2c(c1)COC[C@H]2N(C)C(=O)c1cc2c3c(c(N)nc2cn1)COC3` (single isomer, unassigned) [Example 582]: the IC50 with HCT116 MTAP null cells was 76 nM; with HCT116 WT cells it was 5580 nM.

Regarding `CN(C(=O)c1cc2c3c(c(N)nc2cn1)COC3)[C@@H]1COCc2ccc(C(F)(F)F)cc21` (single isomer, unassigned) [Example 583], the IC50 in the experiment on HCT116 MTAP null cells was determined as 403 nM; in the experiment on HCT116 WT cells it was 8860 nM.

As to `CN(C(=O)c1cc2c3c(c(N)nc2cn1)COC3)[C@H]1COCc2ccc(C(F)(F)F)cc21` (single isomer, unassigned) [Example 584], the values for the IC50 in the experiment with HCT116 MTAP null cells and in the experiment with HCT116 WT cells were 6990 nM and 50000 nM, respectively.

On to `CN(C(=O)c1cc2c3c(c(N)nc2cn1)COC3)[C@@H]1CCOc2cc(C(F)(F)F)ccc21` (single isomer, unassigned) [Example 585], for which the figures for the IC50 in the experiment with HCT116 MTAP null cells and in the experiment on HCT116 WT cells were 256 nM and 12600 nM, respectively.

As to `CN(C(=O)c1cc2c3c(c(N)nc2cn1)COC3)[C@H]1CCOc2cc(C(F)(F)F)ccc21` (single isomer, unassigned) [Example 586], the results for the IC50 in the experiment on HCT116 MTAP null cells and with HCT116 WT cells were 3020 nM and 10000 nM, respectively.

Regarding `CCN(C(=O)c1cc2c3c(c(N)nc2cn1)COC3)[C@@H]1COCc2cc(Br)ccc21` (single isomer, unassigned) [Example 587], the IC50 in the experiment on HCT116 MTAP null cells worked out at 21 nM; in the experiment on HCT116 WT cells it was 573 nM.

Consider `CCN(C(=O)c1cc2c3c(c(N)nc2cn1)COC3)[C@H]1COCc2cc(Br)ccc21` (single isomer, unassigned) [Example 588], for which the values for the IC50 in the experiment with HCT116 MTAP null cells and with HCT116 WT cells were 1980 nM and 10000 nM, respectively.

As to `CN(C(=O)c1cnc2nc(N)c3c(c2c1)COC3)[C@H]1COCc2cc(Br)ccc21` (single isomer, unassigned) [Example 589], the figures for the IC50 in the experiment with HCT116 MTAP null cells and in the experiment with HCT116 WT cells were 7950 nM and 34700 nM, respectively.

As for `CN(C(=O)c1cnc2nc(N)c3c(c2c1)COC3)[C@@H]1COCc2cc(Br)ccc21` (single isomer, unassigned) [Example 590], the values for the IC50 in the experiment on HCT116 MTAP null cells and in the experiment on HCT116 WT cells were 129 nM and 4500 nM, respectively.

Regarding `CN(C(=O)c1cc2c3c(c(N)nc2cc1F)COC3)[C@@H]1COCc2cc(S(C)(=O)=O)ccc21` (single isomer, unassigned) [Example 591], the IC50 was found to be 26 nM in the experiment with HCT116 MTAP null cells and 1600 nM with HCT116 WT cells.

`C[C@H]1OCc2c1c(N)nc1cc(F)c(C(=O)N(C)[C@@H]3COCc4cc(S(C)(=O)=O)ccc43)cc21` (single isomer, unassigned) [Example 592]: the IC50 in the experiment on HCT116 MTAP null cells was 21 nM; with HCT116 WT cells it was 1020 nM.

As for `Cn1ncc2c(N)nc3ccc(C(=O)N(CC4CC4)[C@@H]4COCc5nc(C(F)(F)F)ccc54)cc3c21` (single isomer, unassigned) [Example 593], the concentration for half-maximal inhibition (IC50) worked out at 5 nM in the experiment on HCT116 MTAP null cells and 201 nM in the experiment with HCT116 WT cells.

`Cn1ncc2c(N)nc3ccc(C(=O)N(CC4CC4)[C@H]4COCc5nc(C(F)(F)F)ccc54)cc3c21` (single isomer, unassigned) [Example 594]: the IC50 stood at 228 nM in the experiment on HCT116 MTAP null cells and 19400 nM with HCT116 WT cells.

In the case of `CN(C(=O)c1cc2c(cc1F)nc(N)c1cnn(C)c12)[C@@H]1COCc2cc(C#N)ccc21` (single isomer, unassigned) [Example 595], the values for the IC50 in the experiment with HCT116 MTAP null cells and in the experiment on HCT116 WT cells were 5 nM and 275 nM, respectively.
